# Test results from US20260191998A1, “INDOLE PHTHALOCYANINE COMPOUND, PREPARATION METHOD THEREFOR, AND USE THEREOF IN TUMOR DIAGNOSIS IMAGING” (JIANGSU YAHONG MEDITECH CO., LTD., priority 2022, published 2026).
# Structures can show the parent of a compound that is named as a salt.
# Experiment: UV-VIS absorption spectra (optical property test)
# Type: physicochemical
# Conditions: 10 μM, DMSO solution; for Absorbance × 10^4: at maximum absorption peak
# Description: The UV-VIS absorption spectra of the compounds (10 μM, DMSO solution) were detected using Shimadzu UV2600 spectrophotometer, and the maximum absorption peak and absorbance of each compound were obtained.
Compound,Absorbance × 10^4,Absorption peak [nm]
"2-((E)-2-((E)-2-bromo-3-(2-((E)-3,3-dimethyl-1-(6-oxo-6-phenoxyhexyl)indolin-2-ylidene)ethenyl)cyclohex-1-en-1-yl)ethenyl)-1,3,3-trimethyl-3H-indol-1-ium 2,2,2-trifluoroacetate [Example 58]",2.21,–
"2-((E)-2-((E)-2-chloro-3-(2-((E)-3,3-dimethyl-1-(2-((5-oxo-5-phenoxypentyl)oxy)ethyl) indolin-2-ylidene)ethenyl)cyclohex-1-en-1-yl)ethenyl)-3,3-dimethyl-1-(2-((5-oxo-5-phenoxypentyl)oxy)ethyl)-3H-indol-1-ium [Example 37B]",1.563,801
"2-((E)-2-((E)-2-chloro-3-(2-((E)-3,3-dimethyl-1-(6-oxo-6-(phenylamino)hexyl)indolin-2-ylidene)ethenyl)cyclohex-1-en-1-yl)ethenyl)-3,3-dimethyl-1-(6-oxo-6-(phenylamino) hexyl)-3H-indol-1-ium 2,2,2-trifluoroacetate [Example 27B]",2.117,797
"5-carboxy-2-((E)-2-((E)-2-chloro-3-(2-((E)-3,3-dimethyl-1-(2-(3-oxo-3-phenoxypropoxy)ethyl)indolin-2-ylidene)ethenyl)cyclohex-1-en-1-yl)ethenyl)-1-ethyl-3,3-dimethyl-3H-indol-1-ium 2,2,2-trifluoroacetate [Example 123]",1.3,–
"5-carboxy-2-((E)-2-((E)-2-chloro-3-(2-((E)-3,3-dimethyl-1-(6-oxo-6-phenoxyhexyl)indolin-2-ylidene)ethenyl)cyclohex-1-en-1-yl)ethenyl)-1,3,3-trimethyl-3H-indol-1-ium 2,2,2-trifluoroacetate [Example 120]",1.73,–
"5-carboxy-2-((E)-2-((E)-2-chloro-3-(2-((E)-3,3-dimethyl-1-(6-oxo-6-phenoxyhexyl)indolin-2-ylidene)ethenyl)cyclohex-1-en-1-yl)ethenyl)-1-ethyl-3,3-dimethyl-3H-indol-1-ium 2,2,2-trifluoroacetate [Example 118]",1.73,–
"CC[N+]1=C(/C=C/C2=C(Cl)C(=C/C=C3/N(CCCCCC(=O)Oc4ccccc4)c4ccc5ccccc5c4C3(C)C)/CC2)C(C)(C)c2c1ccc1ccccc21 [Example 1A, 2-((E)-2-((E)-2-chloro-3-((E)-2-(1,1-dimethyl-3-(6-oxo-6-phenoxyhexyl)-1,3-dihydro-2H-benzo[e]indol-2-ylidene)ethenyl)cyclopent-1-en-1-yl)ethenyl)-3-ethyl-1,1-dimethyl-1H-benzo[e]indol-3-ium Chloride]",2.82,860
"CC[N+]1=C(/C=C/C2=C(Cl)C(=C/C=C3/N(CCCCCC(=O)O)c4ccc5ccccc5c4C3(C)C)/CC2)C(C)(C)c2c1ccc1ccccc21 [Example 1B, 2-((E)-2-((E)-3-((E)-2-(3-(5-carboxypentyl)-1,1-dimethyl-1,3-dihydro-2H-benzo[e]indol-2-ylidene)ethenyl)-2-chlorocyclopent-1-en-1-yl)ethenyl)-3-ethyl-1,1-dimethyl-1H-benzo[e]indol-3-ium Chloride]",2.03,859.5
CC[N+]1=C(/C=C/C2=C(Cl)C(=C/C=C3/N(Cc4ccc(C(=O)Oc5ccccc5)cc4)c4ccc5ccccc5c4C3(C)C)/CCC2)C(C)(C)c2c1ccc1ccccc21 [Example 3],1.88,835
"CC1(C)C(/C=C/C2=C(Cl)C(=C/C=C3/N(CCCCCC(=O)Oc4ccccc4)c4ccccc4C3(C)C)/CCC2)=[N+](CCCCCC(=O)Oc2ccccc2)c2ccccc21 [Example 5, 2-((E)-2-((E)-2-chloro-3-(2-((E)-3,3-dimethyl-1-(6-oxo-6-phenoxyhexyl)indolin-2-ylidene)ethenyl)cyclohex-1-en-1-yl)ethenyl)-3,3-dimethyl-1-(6-oxo-6-phenoxyhexyl)-3H-indol-1-ium Chloride]",1.17,796.5
CC1(C)C(/C=C/C2=C(Cl)C(=C/C=C3/N(CCCCCC(=O)Oc4ccccc4)c4ccccc4C3(C)C)/CCC2)=[N+](CCCCCC(=O)O)c2ccccc21 [Example 11],2.27,796.5
"CC[N+]1=C(/C=C/C2=C(Oc3ccccc3)C(=C/C=C3/N(CCCCCC(=O)Oc4ccccc4)c4ccccc4C3(C)C)/CCC2)C(C)(C)c2ccccc21 [Example 12, 2-((E)-2-((E)-3-(2-((E)-3,3-dimethyl-1-(6-oxo-6-phenoxyhexyl)indolin-2-ylidene)ethenyl)-2-phenoxycyclohex-1-en-1-yl)ethenyl)-1-ethyl-3,3-dimethyl-3H-indol-1-ium Chloride]",2.07,781.5
"CCN1/C(=C/C=C2\CCCC(/C=C/C3=[N+](CC)c4ccccc4C3(C)C)=C2NCCCCCC(=O)O)C(C)(C)c2ccccc21 [Example 13, 2-((E)-2-((E)-2-((5-carboxypentyl)amino)-3-(2-((E)-1-ethyl-3,3-dimethylindolin-2-ylidene)ethenyl)cyclohex-1-en-1-yl)ethenyl)-1-ethyl-3,3-dimethyl-3H-indol-1-ium Formate]",0.68,632
"CC1(C)C(/C=C/C2=C(Cl)C(=C/C=C3/N(CCCCCC(=O)Oc4ccccc4)c4ccccc4C3(C)C)/C[N+](C)(C)C2)=[N+](CCCCCC(=O)Oc2ccccc2)c2ccccc21 [Example 14, 2-((E)-2-((E)-4-chloro-5-(2-((E)-3,3-dimethyl-1-(6-oxo-6-phenoxyhexyl)indolin-2-ylidene)ethenyl)-1,1-dimethyl-1,2,5,6-tetrahydropyridin-1-ium-3-yl)ethenyl)-3,3-dimethyl-1-(6-oxo-6-phenoxyhexyl)-3H-indol-1-ium Dichloride]",1.71,767.5
"CC[N+]1=C(/C=C/C2=C(Cl)C(=C/C=C3/N(CCCCCC(=O)Oc4ccccc4)c4ccccc4C3(C)C)/C[N+](C)(C)C2)C(C)(C)c2ccccc21 [Example 16, 2-((E)-2-((E)-4-chloro-5-(2-((E)-3,3-dimethyl-1-(6-oxo-6-phenoxyhexyl)indolin-2-ylidene)ethenyl)-1,1-dimethyl-1,2,5,6-tetrahydropyridin-1-ium-3-yl)ethenyl)-1-ethyl-3,3-dimethyl-3H-indol-1-ium Dichloride]",1.71,766
"CC1(C)C(/C=C/C2=C(Cl)C(=C/C=C3/N(CCC(=O)O)c4ccccc4C3(C)C)/C[N+](C)(C)C2)=[N+](CCC(=O)O)c2ccccc21 [Example 17, 1-(2-carboxyethyl)-2-((E)-2-((E)-5-(2-((E)-1-(2-carboxyethyl)-3,3-dimethylindolin-2-ylidene)ethenyl)-4-chloro-1,1-dimethyl-1,2,5,6-tetrahydropyridin-1-ium-3-yl)ethenyl)-3,3-dimethyl-3H-indol-1-ium Ditrifluoroacetate]",0.88,766
"CCN1/C(=C/C=C2\C[N+](C)(C)CC(/C=C/C3=[N+](CC)c4ccccc4C3(C)C)=C2Cl)C(C)(C)c2ccccc21 [Example 18, 2-((E)-2-((E)-4-chloro-5-(2-((E)-1-ethyl-3,3-dimethylindolin-2-ylidene)ethenyl)-1,1-dimethyl-1,2,5,6-tetrahydropyridin-1-ium-3-yl)ethenyl)-1-ethyl-3,3-dimethyl-3H-indol-1-ium Ditrifluoroacetate]",2.12,764.5
